Assays:
[1] = Half life of the molecule in primate sera; assay type: in vitro ADME; details: 37° C.
Method: In vitro, we and others (Lang, 1995) have shown that the activation of Vg9Vd2 cells occurs within minutes after the addition of the molecule. Two mechanisms may prevent the molecule to be active in vivo i) the likely rapid renal clearance of such a small molecule and ii) a degradation process in vivo. […] Nevertheless, the concentration of the molecule, injected by intravenous route in relatively high amount, should be maintained beyond the 20 nM EC50 for a significant time, if no additional, blood cell or organ related degradation process occurs in vivo.

Vγ9Vδ2 T cells [2] = assay: Phosphostim (BrHPP) i.v. pharmaco-dynamic GLP study in cynomolgus monkeys; assay type: in vivo
Method: The objective of this GLP study was to explore further the pharmaco-dynamic properties of Phosphostim (BrHPP, 200 mg; GMP batch) alone and in combination with IL-2 following several i.v. administrations to cynomolgus monkeys. In particular, this study was planned to evaluate: • A dose-effect relationship between Phosphostim injection and γδ T cell peripheral amplification; • The pharmaco-dynamic effect of a second, third and up to fifth administration of Phosphostim in male and female animals; • The functionality of in vivo induced γδ T cells, by dosing systemic cytokines after Phosphostim treatment; • The effect of treatment with IL-2 alone and to validate the selected dose of 0.6 million IU/day/animal.
Phosphostim was administered i.v., as slow infusions (50 ml in 30 minutes), at various dose levels to five groups of two animals (one male+one female). Males received two successive injections of BrHPP (Day 0 and Day 22) before sacrifice and females four injections (Days 0, 22, 52 and 84). Two females, selected upon their level of response to the 4th treatment, received a supplementary injection of BrHPP alone at Day 91, during γδ cell peripheral increase, for systemic cytokine dosages.
The administration schedule of the test product can be summarized as follows in Table 1:
The dose levels in Table 1 are can be converted to BrHPP pure (anionic) form equivalent by multiplying each dose by 0.6. Thus, the doses of 0.2, 4, 20, 50, 80, 120 and 160 mg/kg in Table 1 are equivalent respectively to 0.12, 2.4, 12, 30, 48, 72 and 96 mg/kg of anionic form BrHPP. • IL-2 was administered s.c. at the following frequency: from Day 0 to Day 6 and from Day 22 to Day 28 for all animals; from Day 52 to 58 and from Day 84 to Day 90 for all the females. IL-2 was administered as two separate s.c. injections approximately 8 hours apart of 0.3 million IU, corresponding to 0.6 million IU/day/animal.

γδ T cells = assay: Supplementary pharmaco-dynamics studies, consecutive injections of BrHPP in male cynomolgus monkeys; assay type: in vivo
Method: We have thus performed other non-GLP pharmaco-dynamics studies in male cynomolgus monkeys in order to further document the features of in vivo γδ T cells response to consecutive injections of BrHPP, varying either the dose or the time-laps between injections.
In vivo amplification was assessed after 4 successive injections of 20 or 80 mg/kg Phosphostim®, 4 or 8 weeks apart.

Vγ9Vδ2 T cells [3] = assay: Expansion of peripheral blood Vγ9Vδ2 T cells from PBMCs of mRCC patients with BrHPP and IL2; assay type: cell-based, human; details: 3 μM BrHPP + IL2, 15 days; 7 patients out of 12
Method: Blood samples from 12 RCC patients (50 ml) were collected just before or no more than 2 months after the nephrectomy. PBMCs were isolated by centrifugation on Ficoll-Hypaque density gradient (Amersham Biosciences). PBMCs from one healthy volunteer was used as control.
Ten million PBMCs were cultured at 2×10^6/ml in 24 well plate in RPMI 1640 supplemented with 10% v/v fetal calf serum (Fetal Clone irradiated, Hyclone).
Polyclonal Vγ9Vδ2 T cell lines were specifically expanded in presence of 3 μM BrHPP molecule (batch INPA-0214) and 100 IU/ml IL2 during 15 days.
Every three days, the volume corresponding to half culture medium was replaced by fresh medium containing only 200 IU/ml IL2
Before in vitro culture, phenotype of 2×10^5 PBMCs from RCC patients was analyzed using the following combinations of fluorescein isothiocyanate (FITC), phycoerythrin (PE) and phycoreythrin-cyanin 5 (PC5) conjugated antibodies to determine the NK, αβ and γδ T cells population (all purchased from Beckman-Coulter): CD3-PC5/Vδ2-FITC/IgG1-PE, CD8-PE, CD56-PE. At day 15 of the culture, a triple staining was performed on the expanded Vδ9Vδ2 T cells bulk. The following antibodies combinations were performed: […]

With “3-(bromomethyl)-3-butanol-1-yl-diphosphate [BrHPP]” the “half life of the molecule in primate sera” value [1] was “about one”, the “γδ cell number increase” value (Vγ9Vδ2 T cells [2]; 20 mg/kg (12 mg/kg anionic form) + IL-2) was 20 fold and the “increase in circulating γδ cell count” value (Vγ9Vδ2 T cells [2]; at around 120 mg/kg (EC50) + IL-2) was 100 fold. For the same substance, the “circulating Vγ9Vδ2 T cells vs before treatment” value (Vγ9Vδ2 T cells [2]; highest tested dose + IL-2) was 200 fold, the “share of circulating Vγ9Vδ2 T cells in peripheral lymphocytes” value (Vγ9Vδ2 T cells [2]; highest tested dose + IL-2) was “represented the majority of peripheral lymphocytes” and the “estimated EC50 value in vivo, anionic form BrHPP” value (Vγ9Vδ2 T cells [2]; i.v. + IL-2) was about 72 mg/kg. For the same substance, the “estimated EC50 value of BrHPP in vivo” value (Vγ9Vδ2 T cells [2]; i.v. + IL-2) was “around 120 mg/kg”, the “first slightly efficient tested dose” value (Vγ9Vδ2 T cells [2]; i.v. + IL-2, Day 7) was 4 mg/kg and the “first slightly efficient tested dose, anionic form BrHPP” value (Vγ9Vδ2 T cells [2]; i.v. + IL-2, Day 7) was 2.4 mg/kg. The “in vivo amplification of γδ cells” value (γδ T cells; 4 successive injections of 20 or 80 mg/kg Phosphostim, 4 or 8 weeks apart) was “repeated increases of γδ cells”, the “γδ cell rate and absolute count in the periphery” value (γδ T cells; at least 3 successive injections, 8 weeks apart, 20 or 80 mg/kg, males) was “significant increases” and the “γδ cell rate and absolute count” value (γδ T cells; at least 4 successive injections, 4 weeks apart, 20 mg/kg, males) was “detectable increases”. The “patients presenting a Vγ9Vδ2 T cells amplification” value (Vγ9Vδ2 T cells [3]) was 58%.
